Results published in patent US8470805B2, “Processes for preparing piperazinium salts of KMUP and use thereof” (Kaohsiung Medical University, priority 2009, dated 2013).

Legend:
[1] = test system: monocrotaline (MCT)-treated rats; experiment: Pulmonary artery blood pressure in monocrotaline (MCT)-treated rats; type: in vivo, male Wistar rats
Method: 5. the monocrotaline (MCT)-treated rats show the […] pulmonary aterial hypertension
Pulmonary aterial hypertension in MCT-treated rats is caused on day 21 after the intraperitoneal injection. Orally administered KMUP-1 HCl salt (2.5 mg/kg), simvastatin (2.5 mg/kg), KMUP-1-nicotinic acid complex (2.5 mg/kg), KMUP-1-Citric acid complex (2.5 mg/kg), KMUP-1-Simvastatinic acid complex (2.5 mg/kg) and KMUP-1-γ-Polyglutamic acid complex (2.5 mg/kg), or the inhalated KMUP-1-PGI2 (0.1 mM) every day may inhibit the male Wistar rats treated with MCT, which show the effect of decreasing the pulmonary artery blood pressure (PABP).

[2] = test system: C57BL/6J mice; experiment: The lipid-lowering effect in C57BL/6J mice (high-fat diet); type: in vivo; details: HFD, after 21 days
Method: (§1) 8-week C57BL/6J mice are divided into standard diet (STD) group and the high-fat diet (HFD) group. In the HFD group, the KMUP-1 HCl salt (1, 2.5 and 5 mg/kg), the simvastatin (5 mg/kg), the KMUP-1-Nicotinic acid complex (1 and 5 mg/kg), the KMUP-1-Simvastatinic acid complex (1 and 5 mg/kg), KMUP-1-Gemfibrozil complex (2.5 mg/kg), KMUP-1-Fibric acid complex (2.5 mg/kg), KMUP-1-γ-polyglutamic acid complex (2.5 mg/kg) and KMUP-1-Citric acid complex (2.5 mg/kg) are administered orally. After 21 days, the amounts (mg/dl) of the triglyceride (TG), the total cholesterol (tot.-C), the high density lipoprotein cholesterol (HDL-C), the low density lipoprotein cholesterol (LDL-C) and the serum glucose of six mice for each group are measured as shown in Tables 2 and 3.

[3] = test system: C57BL/6J mice; experiment: The amount of the serum glucose and insulin in C57BL/6J mice (high-fat diet); type: in vivo; set-up: The amount of serum insulin: unit not given here; details: 1 mg/kg orally, HFD, after 21 days
Method: as §1

[4] = test system: testosterone-induced mice; experiment: Prostate hypertrophy (BPH) in testosterone-induced mice; type: in vivo; details: 2.5 mg/kg, testosterone 3 mg/kg/day for 4 weeks, day 28, n=6
Method: The testosterone (TS, 3 mg/kg/day) is administered for 4 weeks for inducing BPH in mice, which combines with KMUP-1 HCl salt (2.5 mg/kg), KMUP-1-Citric acid (2.5 mg/kg) and KMUP-1-Nicotinic acid (2.5 mg/kg), and the ratio of hypertrophy (g)/body weight (g) is measured at day 28 (n=6).

[5] = test system: TGF-β; experiment: Bleomycin-induced lung fibrosis in mice, TGF-β expression by EIA; type: in vivo; details: bleomycin 60 mg/kg
Method: 6. KMUP-1 salts inhibit the lung fibrosis in mice induced by bleomycin (BM) mediated via transforming growth factor beta (TGF-β) expression in lung The increased amount of the synthetic collagen and the generation of the macrophage in alveolus may facilitate the formulation of TGF-β, and the expression of TGF-β is looked as a biomarker of the lung fibrosis. […] The state of the TGF-β expression in the irrigation solution is measured by the enzyme immunoassay (EIA).

[6] = test system: H1N1 virus; type: cell-based; details: MDCK culture infected with H1N1 virus; for IC50: n=6
[7] = test system: RAW 264.7 cells; experiment: Inhibition of RANKL-induced osteoclast differentiation (TRAP staining); type: cell-based; details: 5 μM, RANKL 10 μg/ml, 5 days, n=5
[8] = test system: STZ-induced diabetic rats; experiment: Serum glucose and body weight in streptozosin (STZ)-induced diabetic rats; type: in vivo; details: 5 mg/kg orally, after 21 days
Method: 2. The effect of KMUP-1 on decreasing the amount of the serum glucose in streptozosin (STZ)-induced diabetic rats
60 mg/kg of streptozosin is injected intravenously for inducing the STZ-induced rats, and the KMUP-1 HCl salt (0.5, 1.5, 2.5 and 5 mg/kg) and KMUP-1-Simvastatinic acid (5 mg/kg) are administered orally. After 21 days, the amount of the serum glucose (mg/dl), the amount of the serum insulin (mg/dl), the body weight (g) and the change of the body weight are measured.

[9] = test system: STZ-induced diabetic rats; experiment: Change of insulin and fasting blood glucose after administration, STZ-induced diabetic rats; type: in vivo; details: 4 mg/kg
Method: Nateglinide, repaglinide or the placebo is administered on day 1 before one hour of the breakfast, and the KMUP-1/KMUP-1-Nateglinide or KMUP-1-Repaglinide are orally administered at 1, 2, 3, 4, 5 and 6 hrs respectively. The amount of the serum glucose (mg/dl), the amount of the serum insulin (mg/dl), the body weight (g) and the change of the body weight are measured.

Compound	PABP ([1]; 2.5 mg/kg/day p.o.) [mmHg]	HDL-C ([2]; 5 mg/kg orally) [mg/dL]	LDL-C ([2]; 5 mg/kg orally) [mg/dL]	TG ([2]; 5 mg/kg orally) [mg/dL]	tot.-C ([2]; 5 mg/kg orally) [mg/dL]	Changing % of the lung TGF-β ([5]; 2.5 mg/kg orally) [%]	The change of the fasting blood glucose after administration ([9]; 1 hr) [mg/dL]	The change of the insulin after administration ([9]; 1 hr) [U/mL]	The change of the fasting blood glucose after administration ([9]; 2 hr) [mg/dL]	The change of the insulin after administration ([9]; 2 hr) [U/mL]	The change of the insulin after administration ([9]; 3 hr) [U/mL]	The change of the insulin after administration ([9]; 4 hr) [U/mL]	The change of the fasting blood glucose after administration ([9]; 6 hr) [mg/dL]	The change of the insulin after administration ([9]; 6 hr) [U/mL]	further results
Cn1c(=O)c2c(ncn2CCN2CCN(c3ccccc3Cl)CC2)n(C)c1=O.O=C(O)c1cccnc1 [KMUP-1-Nicotinic acid, KMUP-1-Nicotinic acid salt]	12 ± 2.6	97.98 ± 3.4	13.8 ± 1.2	80.75 ± 7.9	130 ± 4.1	42 ± 3.8	–	–	–	–	–	–	–	–	The amount of serum glucose [3]: 123.5 ± 2.5 mg/dL; hypertrophy (g)/body weight (g) [4]: 0.19 ± 0.07
CC[C@H](C)C(=O)O[C@H]1C[C@H](O)C=C2C=C[C@H](C)[C@H](CC[C@@H](O)C[C@@H](O)CC(=O)O)[C@H]21.Cn1c(=O)c2c(ncn2CCN2CCN(c3ccccc3Cl)CC2)n(C)c1=O [KMUP-1-Pravastatinic acid, KMUP-1-Pravastatinic acid complex]	–	–	–	–	–	–	–	–	–	–	–	–	–	–	IC50 [6]: 2.1 µg/mL
CCC(C)(C)C(=O)O[C@H]1C[C@@H](C)C=C2C=C[C@H](C)[C@H](CC[C@@H](O)C[C@@H](O)CC(=O)O)[C@H]21.Cn1c(=O)c2c(ncn2CCN2CCN(c3ccccc3Cl)CC2)n(C)c1=O [KMUP-1-Simvastatinic acid, KMUP-1-Simvastatinic acid complex]	12 ± 1.3	108.4 ± 1.3	17.3 ± 1.4	81.2 ± 4.4	129.7 ± 1.4	45 ± 4.5	–	–	–	–	–	–	–	–	The amount of serum glucose [3]: 117.3 ± 3.8 mg/dL; The amount of serum insulin [3]: 0.85 ± 0.17; TRAP-Positive Cells [7]: 72 ± 5; The amount of the serum glucose [8]: 194.2 ± 16.1 mg/dL; growth of the virus (in words) ([6]; in glucose solution): can inhibit the growth of the virus; IC50 [6]: 1.8 µg/mL
CC(C)[C@H]1CC[C@H](C(=O)N[C@H](Cc2ccccc2)C(=O)O)CC1 [Nat, Nateglinide, reference compound]	–	–	–	–	–	–	4.7 ± 0.6	42.5 ± 4.2	0.3 ± 0.2	49.3 ± 3.4	24.4 ± 4.6	17.8 ± 2.8	-0.2 ± 0.3	4.4 ± 0.6	–
CCOc1cc(CC(=O)N[C@@H](CC(C)C)c2ccccc2N2CCCCC2)ccc1C(=O)O [Rep, Repaglinide, reference compound]	–	–	–	–	–	–	3.2 ± 0.8	47.5 ± 3.7	0.6 ± 0.1	49.3 ± 3.4	24.4 ± 4.6	19.8 ± 3.6	-0.1 ± 0.4	4.8 ± 0.4	–
CCC(C)(C)C(=O)O[C@H]1C[C@@H](C)C=C2C=C[C@H](C)[C@H](CC[C@@H]3C[C@@H](O)CC(=O)O3)[C@H]21 [Simvastatin, simvastatin, reference compound]	–	103.18 ± 2.5	15.3 ± 1.3	82.67 ± 6.3	133.67 ± 4.3	–	–	–	–	–	–	–	–	–	TRAP-Positive Cells [7]: 85 ± 7; Changing % of the lung TGF-β ([5]; 5 mg/kg orally): 40 ± 4.3 %
KMUP-1-PGI2 complex	–	–	–	–	–	–	–	–	–	–	–	–	–	–	PABP ([1]; 0.1 mM (inhalation)): 10 ± 0.2 mmHg
KMUP-1-Repaglinide Complex	–	–	–	–	–	–	5.7 ± 0.8	39.5 ± 3.8	0.5 ± 0.2	47.3 ± 2.2	27.4 ± 2.8	14.8 ± 3.7	-0.3 ± 0.1	2.8 ± 0.5	–
KMUP-1-γ-polyglutamate complex [KMUP-1-γ-polyglutamic acid]	11 ± 0.6	–	–	–	–	42 ± 1.6	–	–	–	–	–	–	–	–	HDL-C ([2]; 2.5 mg/kg orally): 97.3 ± 1.6 mg/dL; LDL-C ([2]; 2.5 mg/kg orally): 16.5 ± 0.9 mg/dL; TG ([2]; 2.5 mg/kg orally): 78.2 ± 3.6 mg/dL; tot.-C ([2]; 2.5 mg/kg orally): 129.4 ± 1.4 mg/dL
